Laboratory results reported in patent US12070445B2, “System and assay for monitoring production/release of membrane-lytic toxins in bacteria and compounds for modulating same” (priority 2021, dated 2024).
Where two headings read alike, the source gives them in different places.

Tests used:
P. aeruginosa = P. aeruginosa growth (OD600); format: cell-based; settings: P. aeruginosa WT and QS mutant with vesicles, 12 hr
Protocol: (§1) Microtiter plate vesicle lysis assays. Portions of media (2 or 10 mL) were inoculated with individual bacterial colonies and allowed to shake overnight. From these overnight cultures, subcultures were prepared by diluting the cultures 1:50 (v/v) in fresh BHI for S. aureus or 1:100 (v/v) in fresh LB for P. aeruginosa. An aliquot of each subculture (178 μL) was added to 20 μL of vesicle suspension and 2 μL of compound solution (dissolved in DMSO at 100× working concentration) in a clear-bottomed, black 96-well microtiter plate (Corning 3904). For controls, DMSO (vehicle) or Triton X-100 (1% final concentration) was substituted for compound. Plate covers were coated with an aqueous solution of 0.05% Triton X-100 and 20% ethanol (Brewster, 2003) to prevent the accumulation of condensation. Plates were incubated in a Biotek Synergy 2 microplate reader running Gen5 1.05 software at 37° C. with shaking at the high-speed setting. Fluorescence (excitation 500 nm, emission 540 nm) and OD600 (absorbance at 600 nm) measurements were recorded every 15 minutes for 12 hours. All experiments were performed in technical triplicate in a single microtiter plate. Biological triplicates were then obtained over three days. GraphPad Prism software (v. 9) was used to generate curves and calculate standard error.

[1] = system: WT P. aeruginosa (PAO1-PGSC); test: Microtiter plate (96-well) vesicle lysis assay with WT P. aeruginosa; format: cell-based
Protocol: Compound handling and preparation. OdDHL and BHL (Hodgkinson et al., 2011), S. aureus AIP and peptide derivatives 1-5 (Tal-Gan et al., 2013, Tal-Gan et al., 2016, Vasquez and Blackwell, 2019), and compounds 7-9 (Welsh and Blackwell, 2016a, Boursier et al., 2018, Manson et al., 2020) were synthesized using previously described methods. PQS and compound 6 were purchased from Millipore Sigma and AK Scientific respectively. Compounds were stored dry at −20° C. until needed and then dissolved in DMSO. DMSO stock solutions were prepared at concentrations that varied with compound potency and apparent solubility. Final in-well compound concentrations for 96-well vesicle lysis assays, unless noted otherwise, were: 10 μM for AIP, OdDHL, and PQS; 1 mM for BHL; 100 nM for 1-4; 10 μM for 5; 20 μM for 6; 100 μM for 7 and 8; and 200 μM for 9.
Production of phospholipid vesicles with encapsulated calcein. Large unilamellar vesicles (LUVs) were produced by adapting a freeze-thaw and vesicle extrusion procedure (Mayer et al., 1986). Briefly, stock solutions of phospholipids (DOPC, DPPC, DPPE, or cholesterol) in chloroform were mixed to the desired lipid compositions (70 mol % DOPC/30 mol % cholesterol for S. aureus vesicles or 68 mol % DPPC, 30 mol % cholesterol, 2 mol % DPPE for P. aeruginosa vesicles), and the chloroform was removed using an N2 stream or rotary evaporation followed by drying for at least one hour under vacuum. Self-quenching solutions of calcein were prepared by combining calcein and PBS or a specially prepared calcein buffer (1 mM EDTA, 10 mM Trisbase, and 100 mM NaCl; pH 8) to a calcein concentration of […]. The resulting solutions were titrated with 10 M aqueous NaOH until all calcein was dissolved and the solution reached pH 7.4 or pH 8 for PBS and the calcein buffer, respectively. The resulting calcein solutions were added to the dried phospholipid films (PBS for S. aureus formulations and the calcein buffer for the P. aeruginosa formulations) for a final lipid concentration of 5 mg/mL. The resulting lipid solutions were vortexed vigorously and briefly sonicated in a bath sonicator to form a turbid vesicle suspension. The vesicle suspensions were then freeze-thawed five times by alternately immersing them into an iPrOH/dry ice bath and a warm water bath (˜60° C.). Vesicles prepared for continuous time-course experiments were passed at least 5 times through a 100 nm polycarbonate filter using a Mini-prep extruder. Vesicles prepared for the high-throughput screen were passed through the filter 3 times. The resulting vesicles were then separated from external, unloaded calcein using a hand-packed Sephadex-G50 size exclusion chromatography column. The concentration of phospholipid in the solution was quantified using ^31P NMR (per the above protocol), and the phospholipid concentration was adjusted to 2 mM for unsaturated lipid solutions and 1 mM for saturated lipid solutions in their respective buffers. The resulting vesicles were characterized by dynamic light scattering and found to have a hydrodynamic diameter of ˜150 nm (FIGS. 3A-3C), which agrees with previous reports describing vesicle production using a similar method (Lapinski et al., 2007).
Microtiter plate vesicle lysis assays. Portions of media (2 or 10 mL) were inoculated with individual bacterial colonies and allowed to shake overnight. […]

[2] = Solubility in DMSO and aqueous solutions
human apelin receptor = target: T1, human apelin receptor (Homo sapiens, UniProt P35414); settings: Smith, 2019; cited from earlier work
T1 sequence (P35414 1-380): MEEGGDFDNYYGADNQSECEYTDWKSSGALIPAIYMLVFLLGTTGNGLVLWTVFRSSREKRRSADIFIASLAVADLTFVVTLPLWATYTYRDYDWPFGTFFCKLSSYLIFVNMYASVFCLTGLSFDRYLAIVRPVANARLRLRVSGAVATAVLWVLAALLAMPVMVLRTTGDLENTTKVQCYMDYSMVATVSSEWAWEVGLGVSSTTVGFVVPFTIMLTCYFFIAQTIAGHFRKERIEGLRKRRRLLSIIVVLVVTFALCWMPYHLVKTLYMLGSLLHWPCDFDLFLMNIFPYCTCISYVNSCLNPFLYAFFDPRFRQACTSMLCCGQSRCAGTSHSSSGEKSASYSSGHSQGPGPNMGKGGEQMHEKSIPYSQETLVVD

S. aureus = S. aureus growth (OD600); format: cell-based; settings: S. aureus, HTS hits
Protocol: as §1
High-throughput screening and follow-up analysis protocols. Test compounds and positive control 1 were delivered in 2.5 nL aliquots of DMSO with an Echo 550 liquid handler (LabCyte Inc.) into black 384-well microtiter plates (Corning). All test compounds were tested at 10 μM; positive control 1 was tested at 250 nM. DMSO was used as a negative control. Overnight cultures (2 mL) of WT S. aureus (RN6390b) were grown at 37° C. with shaking at 200 rpm. These cultures were diluted 1:500 (v/v) in fresh BHI medium, at which point vesicle solutions were added to a final concentration of 1 mM phospholipid (as determined by ^31P NMR analyses). This vesicle-cell mixture was then added to the 384-well microtiter plates with a Multidrop 384 liquid-dispensing robot (Thermo Scientific) for a total volume of 50 μL per well. Plates were incubated statically for ˜24 hr at 37° C., at which point fluorescence (excitation 483, emission 530) and OD600 (absorbance at 600 nm) measurements were made using a CLARIOstarR Plus microtiter plate reader (BMG Labtech) running MARS data analysis software. Scatter plots were generated using the Collaborative Drug Discovery Vault informatics platform. […] Fluorescence (excitation 510, emission 544) and OD600 measurements were acquired with a PerkinElmer EnVision microtiter plate reader running Envision Manager software. […]

agr = agr YFP transcriptional reporter assay (S. aureus AH1677 with pDB59); format: cell-based; settings: for agr inhibition in agr transcriptional reporter assay: S. aureus agr YFP reporter; for IC50: Staphylococcus aureus
Protocol: Bacterial strains and culture. All bacteria were grown at 37° C. with 200 rpm shaking unless otherwise specified. S. aureus and P. aeruginosa were grown in BHI medium and LB medium, respectively. S. aureus AH1677 (with an agr-YFP reporter plasmid) and P. aeruginosa PAO1-PGSC (with a plasI-LVAgfp reporter plasmid) were used as QS transcriptional reporters and grown with 10 μg/mL chloramphenicol and 300 μg/mL carbenicillin, respectively. All other strains were grown without supplemental antibiotic. S. aureus RN6390b and P. aeruginosa PAO1-PGSC were used as WT strains in vesicle lysis experiments, while S. aureus RN9222 and P. aeruginosa PAO-JG35 were used as QS mutants. RN9222 was grown without antibiotic as it was not used as a reporter strain (i.e., it served only as QS mutant).
High-throughput screening and follow-up analysis protocols. Test compounds and positive control 1 were delivered in 2.5 nL aliquots of DMSO with an Echo 550 liquid handler (LabCyte Inc.) into black 384-well microtiter plates (Corning). All test compounds were tested at 10 μM; positive control 1 was tested at 250 nM. DMSO was used as a negative control. Overnight cultures (2 mL) of WT S. aureus (RN6390b) were grown at 37° C. with shaking at 200 rpm. These cultures were diluted 1:500 (v/v) in fresh BHI medium, at which point vesicle solutions were added to a final concentration of 1 mM phospholipid (as determined by ^31P NMR analyses). This vesicle-cell mixture was then added to the 384-well microtiter plates with a Multidrop 384 liquid-dispensing robot (Thermo Scientific) for a total volume of 50 μL per well. Plates were incubated statically for ˜24 hr at 37° C., at which point fluorescence (excitation 483, emission 530) and OD600 (absorbance at 600 nm) measurements were made using a CLARIOstarR Plus microtiter plate reader (BMG Labtech) running MARS data analysis software. Scatter plots were generated using the Collaborative Drug Discovery Vault informatics platform. The dose-response experiment using the vesicle lysis assay was performed in a 384-well plate in technical duplicate with compound concentrations of 0.1, 0.25, 0.5, 1, 2.5, 5, 10, and 20 μM. Dose-response curves were generated using variable slope (4 parameter) non-linear regression analysis for compound inhibition using GraphPad Prism software (v. 9). Analysis of the QS modulatory activity of the HTS hits and 6 (savirin) was performed using the S. aureus YFP transcriptional reporter strain. HTS hits were purchased directly from Life Chemicals, Inc. DMSO stock solutions (10 mM) of each compound were prepared and stored at −20° C. Serial dilutions (1:3) were prepared from the stock solutions in DMSO, and 2 μL aliquots of the resulting dilutions were added to the wells of black 96-well microtiter plates (Corning). Overnight cultures of the S. aureus reporter strain (2 mL) were grown at 37° C. with shaking at 200 rpm. Cultures were diluted 1:50 (v/v) into fresh BHI medium, and 198 μL of this diluted culture were added to each well containing compound, for a total volume of 200 μL per well. All plates contained a vehicle control consisting of 2 μL of DMSO and 198 μL of culture and a media control consisting of 200 μL BHI. Plates were incubated for ˜24 hours at 37° C. with shaking at 200 rpm. Fluorescence (excitation 510, emission 544) and OD600 measurements were acquired with a PerkinElmer EnVision microtiter plate reader running Envision Manager software. Background fluorescence from BHI control was subtracted from raw fluorescence reads, OD600 corrected, and finally normalized to vehicle control. Dose-response curves and IC50 values were generated using 3-parameter non-linear regression analysis for compound inhibition using GraphPad Prism software (v. 9). All compounds were tested in technical triplicate with at least 3 biological replicates.

[3] = 24 h, read-out: IC50 in the agr reporter assay

Compound	effect on bacterial growth (P. aeruginosa)	delay of vesicle lysis relative to vehicle controls ([1]; 100 μM 7 and 8)	delay of the onset of vesicle lysis ([1]; 100 μM 7 and 8, FIG. 7C)	solubility in DMSO and aqueous solutions [2]	reported activity at human apelin receptor (human apelin receptor)	inhibition of cellular growth (S. aureus)	agr inhibition in agr transcriptional reporter assay (agr)	IC50 (agr) [nM]	IC50 (agr; [3]) [nM]
CCCCCCCCCC(=O)CC(=O)Nc1ccccc1 [Compound 7, V-06-018]	inhibit growth mildly at later time points	approximately two	approximately 2 hr	–	–	–	–	–	–
Cc1nn2c(C(C)C)cc(C(=O)O)nc2c1-c1ccccc1 [Compound 10, 7-isopropyl-2-methyl-3-phenylpyrazolo[1,5-a]pyrimidine-5-carboxylic acid]	–	–	–	readily soluble	agonists	do not inhibit cellular growth	near maximal agr inhibitors	1220	500
O=C(Nc1nc2c(s1)CN(C(=O)Nc1cccc(Cl)c1)CC2)c1ccsc1 [Compound 11, N-(3-chlorophenyl)-2-(thiophene-3-carboxamido)-6,7-dihydrothiazolo[5,4-c]pyridine-5(4H)-carboxamide]	–	–	–	readily soluble	–	do not inhibit cellular growth	near maximal agr inhibitors	–	700
